Some test systems named below: SK-OV-3 ovarian; DMS 273 small cell lung; XF 498 CNS; OVCAR-4 ovarian; SNB-78 CNS; KM20L2 colon; M19-MEL melanoma; HT29 colon; HOP-18 NSCLC; HL-60(TB) leukemia; LXFL 529 NSCLC; DMS 114 small cell lung; SN12K1 renal; DLD-1 colon.
What all share (assay): NCI anticancer screen, dose series, 48 h

For two molecules, TGI results are on record in PubChem BioAssay (NCI).

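48-hour exposure; five concentrations; linearly interpolated endpoints. TGI: total growth inhibition.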

In the case of `Cc1ccccc1NC(=O)CSc1nnc(-c2ccc(N=Cc3ccc(Cl)cc3)cc2)o1`, the TGI with SK-OV-3 ovarian, in the assay with DMS 273 small cell lung, in the assay with XF 498 CNS, in the assay with OVCAR-4 ovarian, in the assay on SNB-78 CNS and in the assay with KM20L2 colon was more than 100 µM each time. The TGI in the assay on M19-MEL melanoma, in the assay on HT29 colon, with HOP-18 NSCLC, in the assay on HL-60(TB) leukemia, with LXFL 529 NSCLC and with DMS 114 small cell lung was more than 100 µM each time.
Turning to `CC(=O)C(=Cc1cn(C)c(=O)n(C)c1=O)C(C)=O`, the TGI came to 327 µM with SK-OV-3 ovarian; 225 µM with DMS 273 small cell lung; 78.1 µM in the assay with XF 498 CNS; 273 µM with OVCAR-4 ovarian; 600 µM with SNB-78 CNS; 230 µM in the assay with KM20L2 colon. For the same molecule, the TGI with SN12K1 renal turned out to be 228 µM; with M19-MEL melanoma, 273 µM; with HT29 colon it was 278 µM; in the assay with HOP-18 NSCLC it was 456 µM; with HL-60(TB) leukemia, 271 µM; in the assay with DLD-1 colon, 222 µM. Besides, in the assay with DMS 114 small cell lung, the TGI amounted to 227 µM.
